Data: ChEMBL document CHEMBL1201862, “PubChem BioAssay data set” (2004)
Calls of active or inactive are those of the source. Cut-off read from the data, not from the text of the source, for most assays here: actives have a measured EC50 and inactives only a lower limit.

Experiments:
[1] = Luminescence Cell-Based Dose Confirmation HTS to Identify Activators of 5'UTR Stem-Loop Driven Alpha-Synuclein mRNA Translation in H4 Neuroglioblastoma Cells. [Related pubchem assays: 1829 (Project Summary), 1814 (Primary HTS)]; type: functional
H4 = assay: Luminescence Cell-Based Dose Response HTS to Identify Activators of 5'UTR Stem-Loop Driven Prion Protein mRNA Translation in H4 Neuroglioblastoma Cells. [Related pubchem assays: 1829 (Project Summary), 1814 (Primary HTS)]; type: functional; conditions: Homo sapiens
[2] = Luminescence Cell-Based Dose Response HTS to Identify Activators of Luciferase Translation or Activity in H4 […] Cells. [Related pubchem assays: 1829 (Project Summary), 1814 (Primary HTS)]; type: functional
[3] = biological target: T1, Heat shock factor protein 1 (Mus musculus, UniProt P38532); assay: HSF1 potentiators in luciferase reporter cells, confirmation, cell-based, NIH3T3, luminescence, dose retest (AID 435004); type: functional;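 note: stress induced by proteasome inhibitor MG132 added 30 min after compound; luciferase reporter driven by HSF1 response element in NIH3T3 cells; actives raise luminescence as potentiators of the MG132 stress response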
T1 sequence (P38532 whole entry): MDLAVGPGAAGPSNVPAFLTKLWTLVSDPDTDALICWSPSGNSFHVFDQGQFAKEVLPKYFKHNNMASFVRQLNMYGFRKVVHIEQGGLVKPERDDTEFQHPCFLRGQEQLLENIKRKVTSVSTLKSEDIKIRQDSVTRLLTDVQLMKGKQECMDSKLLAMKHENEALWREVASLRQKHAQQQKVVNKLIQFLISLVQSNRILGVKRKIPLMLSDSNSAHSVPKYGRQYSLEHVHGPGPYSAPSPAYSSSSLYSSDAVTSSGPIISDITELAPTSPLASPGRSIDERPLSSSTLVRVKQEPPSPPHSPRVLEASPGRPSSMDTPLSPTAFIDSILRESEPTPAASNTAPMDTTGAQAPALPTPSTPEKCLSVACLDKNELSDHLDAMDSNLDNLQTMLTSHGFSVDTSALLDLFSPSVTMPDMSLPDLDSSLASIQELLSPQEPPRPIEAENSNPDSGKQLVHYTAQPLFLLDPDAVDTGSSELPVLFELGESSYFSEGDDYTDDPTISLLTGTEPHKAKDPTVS

Streptokinase A = biological target: T2, Streptokinase A (Streptococcus pyogenes serotype M1, UniProt P10520); assay: S. pyogenes streptokinase expression inhibitors, potency, dose response, plasminogen activation absorbance, OD405 (AID 1914); type: functional, Streptococcus pyogenes M1 GAS;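 note: secreted streptokinase activity via plasminogen activation per viability signal from cell pellet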
T2 sequence (P10520 whole entry): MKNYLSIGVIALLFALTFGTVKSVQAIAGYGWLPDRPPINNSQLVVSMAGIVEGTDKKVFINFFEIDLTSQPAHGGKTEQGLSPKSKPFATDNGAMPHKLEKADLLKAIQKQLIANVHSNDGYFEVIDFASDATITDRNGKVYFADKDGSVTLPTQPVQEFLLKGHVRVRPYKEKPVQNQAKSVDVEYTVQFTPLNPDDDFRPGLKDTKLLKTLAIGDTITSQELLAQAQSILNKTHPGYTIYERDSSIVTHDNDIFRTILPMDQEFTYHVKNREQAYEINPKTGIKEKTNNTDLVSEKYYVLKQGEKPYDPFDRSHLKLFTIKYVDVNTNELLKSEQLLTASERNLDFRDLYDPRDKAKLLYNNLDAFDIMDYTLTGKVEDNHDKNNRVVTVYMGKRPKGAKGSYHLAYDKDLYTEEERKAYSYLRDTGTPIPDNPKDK

[4] = Luminescence Cell-Based Dose Retest to Confirm Inhibitors of Cancer Stem Cells. [Related pubchem assays (depositor defined):AID2717, AID2721]; type: functional; conditions: Homo sapiens
[5] = tested on: Streptococcus sp. 'group A'; assay: growth inhibition of control SK(-) GAS strain, dose response, counter-screen for streptokinase expression inhibitor project, luminescence, kanamycin, BacTiterGlo, confirmation (AID 1900); type: functional, organism-based
Streptococcus = assay: Group A Streptococcus viability loss, dose response, counter-screen for streptokinase expression inhibitor project, luminescence, BacTiterGlo (AID 1915); type: functional, organism-based;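 note: potency for reduction of bacterial viability or growth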
[6] = biological target: T3, Corticotropin-releasing factor receptor 2/Corticotropin-releasing factor-binding protein (Homo sapiens, UniProt P24387+Q13324); assay: Dose Response confirmation of uHTS hits for small molecule antagonists of the CRF-binding protein and CRF-R2 receptor complex.; type: functional; conditions: read-out: IC50_Mean
T3 sequence (Q13324 whole entry): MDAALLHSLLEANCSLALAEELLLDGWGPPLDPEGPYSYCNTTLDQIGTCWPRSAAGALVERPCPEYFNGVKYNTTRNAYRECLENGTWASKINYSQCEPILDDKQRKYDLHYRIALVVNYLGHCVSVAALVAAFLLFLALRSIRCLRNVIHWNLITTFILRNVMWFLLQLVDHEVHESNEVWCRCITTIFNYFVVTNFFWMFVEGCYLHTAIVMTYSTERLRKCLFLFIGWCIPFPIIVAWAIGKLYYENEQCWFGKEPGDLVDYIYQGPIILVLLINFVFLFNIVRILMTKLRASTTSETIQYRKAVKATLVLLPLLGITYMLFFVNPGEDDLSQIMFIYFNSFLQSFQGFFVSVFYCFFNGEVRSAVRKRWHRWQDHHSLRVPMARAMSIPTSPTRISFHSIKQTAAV
T3 sequence (P24387 whole entry): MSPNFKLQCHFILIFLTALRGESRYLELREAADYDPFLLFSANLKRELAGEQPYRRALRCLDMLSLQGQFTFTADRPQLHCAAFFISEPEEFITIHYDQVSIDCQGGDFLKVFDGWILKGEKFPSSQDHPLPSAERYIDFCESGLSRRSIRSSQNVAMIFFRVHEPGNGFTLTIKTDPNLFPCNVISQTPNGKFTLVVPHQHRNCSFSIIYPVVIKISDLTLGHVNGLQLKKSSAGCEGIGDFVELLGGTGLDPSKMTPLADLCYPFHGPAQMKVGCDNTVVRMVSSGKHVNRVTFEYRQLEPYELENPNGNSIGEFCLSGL

[7] = biological target: T3, Corticotropin-releasing factor receptor 2/Corticotropin-releasing factor-binding protein; assay: activators of CRF receptor 2 with binding protein – uHTS hits, confirmation (AID 602473); type: functional; conditions: read-out: EC50_Mean
[8] = cytotoxicity toward NIH3T3 fibroblasts, dose response, counter-screen, cell-based, ATP luminescence, mouse fibroblasts (AID 2010); type: functional;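 note: cells exposed to compound for about 90 hours before reading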
[9] = inhibitors of intracellular T. cruzi replication, confirmation, NIH3T3 host cells, beta-gal luminescence (AID 2044); type: functional, cell-based;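 note: intracellular parasites grown in NIH/3T3 mouse fibroblasts as host cells; luminescent beta-galactosidase reporter signal from transgenic T. cruzi replicating inside host cells; inhibitors lower the luminescence signal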
[10] = Luminescence Cell-Based Dose Response HTS to Identify Inhibitors of 5'UTR Stem-Loop Driven Prion Protein mRNA Translation in H4 Neuroglioblastoma Cells. [Related pubchem assays: 1827 (Project Summary), 1813 (Primary HTS)]; type: functional
[11] = inhibitors of firefly luciferase expression or activity, dose response, H4 neuroglioma cells, luminescence (AID 1990); type: functional, cell-based
[12] = inhibitors of SNCA 5'UTR-driven reporter translation, confirmation, H4 neuroglioma cells, luminescence (AID 1988); type: functional, cell-based
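Throughout, for AC50: cells exposed to compound for roughly 70 hours or longer before luminescence read.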

c1ccc2c(COn3nnc4ccccc43)cccc2c1
EC50 [1]: 28.7 µM (active)
EC50 (H4): > 120 µM (not active)
EC50 [2]: > 120 µM (not active)

CCN(CC)C(=O)CCc1nnc(Cc2cccc(C(F)(F)F)c2)o1
EC50 [1]: 12.5 µM (active)
EC50 (H4): > 120 µM (not active)
EC50 [2]: 14.5 µM (active)

Cc1ccc(NC(=O)c2ccccc2O)cc1
EC50 [3]: 35.5 µM (active)

CCN1CCN(C(=O)c2ccc3c(=O)n(CCc4ccccc4)c(=O)[nH]c3c2)CC1
EC50 [1]: 107 µM (active)
EC50 (H4): 10.2 µM (active)
EC50 [2]: 63.3 µM (active)

Cc1nnc(SC(C(=O)Nc2cc(Cl)cc(Cl)c2)c2ccccc2)[nH]c1=O (centres undefined)
EC50 (Streptokinase A): > 150 µM (not active)

Oc1ccc(Br)cc1/C=N/NC(=S)NCCc1ccccc1
EC50 (Streptokinase A): > 150 µM (not active)
AC50 [4]: 4.29 µM (active)
EC50 [5]: 1.58 µM (active)
EC50 (Streptococcus): 6.21 µM (active)

O=C(NN1C(=O)C2C(C1=O)C1C=CC2C12CC2)c1ccc(Cl)cc1 (centres undefined)
EC50 [3]: > 260 µM (inactive)

CC(=O)Nc1ccc(Nc2nc3c(S(=O)(=O)c4ccc(C)c(C)c4)nnn3c3ccccc23)cc1
EC50 [3]: 112 µM (active)

Fc1cccc(CSc2nc3cc[nH]cc-3n2)c1
EC50 [1]: 39.2 µM (active)
EC50 (H4): 19.2 µM (active)
EC50 [2]: 38.2 µM (active)

COc1ccc(Oc2nccc(-c3ccccc3)c2C#N)cc1
IC50 [6]: 30.7 µM (active)
EC50 [7]: > 53 µM (inactive)
EC50 (H4): 11.8 µM (active)
EC50 [2]: 9.77 µM (active)

CCn1c(SCC(=O)Nc2oc(-c3ccccc3)c(-c3ccccc3)c2C#N)nnc1-c1ccco1
EC50 (Streptokinase A): 58.8 µM (active)
EC50 [5]: 10.7 µM (active)
EC50 (Streptococcus): > 150 µM (not active)

Cc1nc(-c2ccccc2)nc2[nH]c(=O)n(-c3ccccc3)c(=O)c12
EC50 [1]: 16.6 µM (active)
EC50 (H4): > 120 µM (not active)
EC50 [2]: 8.63 µM (active)

Cc1ccc(C(=O)O/N=C(\N)Cc2ccc([N+](=O)[O-])cc2)c(Cl)c1
EC50 [1]: > 120 µM (not active)
EC50 (H4): 28.6 µM (active)
EC50 [2]: > 120 µM (not active)

Cc1ccc(C2C(C#N)=C(N)SC(N)=C2C#N)c(C)c1
EC50 [3]: > 260 µM (inactive)

Cn1cccc1C(=O)OCC(=O)Nc1ccc2c(c1)CCC2
EC50 [1]: 6.37 µM (active)
EC50 (H4): 47.9 µM (inconclusive)
EC50 [2]: 14.5 µM (active)

c1ccn2c(SCc3cn4ccsc4n3)nnc2c1
EC50 [1]: 0.408 µM (active)
EC50 (H4): 108 µM (active)
EC50 [2]: 2.4 µM (active)

COCCCn1c(Cc2csc(Nc3ccc(F)cc3)n2)nnc1SCC(N)=O
EC50 [3]: > 260 µM (inactive)

NC(=O)CS(=O)(=O)c1nc2ccccc2n1Cc1ccccc1F
IC50 [6]: > 47.1 µM (inactive)
EC50 [7]: > 53 µM (inactive)

CCN(CC)c1ccc([N+](=O)[O-])cc1C(=O)N1CCOCC1
EC50 [3]: > 260 µM (inactive)

O=C(c1ccc(N2CCNCC2)cc1)c1cccnc1
IC50 [6]: > 47.1 µM (inactive)
EC50 [7]: > 53 µM (inactive)

COc1ccccc1NS(=O)(=O)c1ccc(N/N=C/c2c(C)nn(-c3ccccc3)c2N2CCCC2)c([N+](=O)[O-])c1
IC50 [6]: > 47.1 µM (inactive)
EC50 [8]: > 60 µM (not active)
EC50 [7]: > 53 µM (inactive)
EC50 [9]: 0.501 µM (active)

O=C1N=C(Nc2ccc(Cl)cc2)SC1Cc1cc(Cl)ccc1Cl (centres undefined)
EC50 (Streptokinase A): > 150 µM (not active)
EC50 [5]: 2.64 µM (active)
EC50 (Streptococcus): 7.38 µM (active)

CCOC(=O)CN1CCC(c2cc(-c3ccc(Cl)cc3)[nH]n2)CC1
EC50 [3]: > 260 µM (inactive)

CCOC(=O)Cc1cnc(NC(=O)NC(C(=O)OCC)(c2ccccc2)C(F)(F)F)s1 (centres undefined)
EC50 [3]: > 260 µM (inactive)

Cc1ccc(NC(=O)C(OC(=O)c2ccc(NC(N)=O)cc2)c2ccccc2)cc1Cl (centres undefined)
EC50 (Streptokinase A): > 150 µM (not active)
EC50 [5]: 9.28 µM (active)
EC50 (Streptococcus): 9.31 µM (active)

Cc1cc(N2CCN(C)CC2)nc2ccc(NC(=O)CCC(=O)NCCCOC(C)C)cc12
IC50 [6]: > 47.1 µM (inactive)
EC50 [7]: > 53 µM (inactive)

COc1ccc(CCCC(=O)N/N=C/c2cccc(OC)c2O)cc1C
EC50 (Streptokinase A): > 150 µM (not active)
EC50 [10]: 48.6 µM (active)
EC50 [11]: 11.1 µM (active)
AC50 [4]: 0.936 µM (active)
EC50 [5]: 2.9 µM (active)
EC50 [12]: 10.6 µM (active)
EC50 (Streptococcus): 3.61 µM (active)

O=C(Nc1cc(C(F)(F)F)ccc1-n1cncn1)c1ccc(Cl)cc1
IC50 [6]: > 47.1 µM (inactive)
EC50 [7]: > 53 µM (inactive)

Cc1cccc(C)c1OCC(=O)N/N=C/C=C/c1ccco1
EC50 [3]: > 260 µM (inactive)

CC1=CC(C)(C)N=C(Nc2ccc(C)cc2)S1
EC50 [1]: 15.2 µM (active)
EC50 (H4): 24.4 µM (active)
EC50 [2]: 12.6 µM (active)

CCOC(=O)c1nnc(-c2ccccc2)nc1N1CC(C)OC(C)C1 (centres undefined)
IC50 [6]: > 47.1 µM (inactive)
EC50 [7]: > 53 µM (inactive)

COc1ccc(CNC(=O)CCc2nc3cc(S(=O)(=O)N(C)C)ccc3n2C)cc1OC
IC50 [6]: > 47.1 µM (inactive)
EC50 [7]: > 53 µM (inactive)

O=C(CSc1ncnc2ccccc12)c1ccc2c(c1)OCCO2
EC50 [1]: 12.9 µM (active)
EC50 (H4): > 120 µM (not active)
EC50 [2]: 90.6 µM (active)

CCCn1c(=O)c2ccccc2n2c(SCc3nc4ccccc4s3)nnc12
EC50 [1]: 0.359 µM (active)
EC50 (H4): 5.47 µM (active)
EC50 [2]: 29.2 µM (active)

N#Cc1c(N)nc2c(c1N)CC(COc1ccccc1)O2 (centres undefined)
EC50 [1]: 47.2 µM (active)
EC50 (H4): 10.7 µM (active)
EC50 [2]: 20.2 µM (active)

COc1ccc(NC(=O)CN2CCCC2c2cccs2)cc1S(=O)(=O)N1CCCCC1 (centres undefined)
IC50 [6]: > 47.1 µM (inactive)
EC50 [7]: > 53 µM (inactive)

Cc1ccc(Cl)cc1N1CCN(C2CCCCC2NS(=O)(=O)c2ccccc2)CC1 (centres undefined)
EC50 [3]: > 260 µM (inactive)
